Values after ≈ are worked out from the molar mass of the structure shown. Active and inactive are the calls of the source. The rule behind the calls is not given here.
Tests used:
[1] = Inhibition of wild type Beta-lactamase SHV-1 in Escherichia coli DH10B by Henri-Michaelis-Menten steady state equation analysis
[2] = Inhibition of Beta-lactamase SHV-1 K234R protein mutant in Escherichia coli DH10B by Henri-Michaelis-Menten steady state equation analysis
Escherichia coli [3] = assay: Binding affinity to Beta-lactamase SHV-1 K234R protein mutant in Escherichia coli DH10B assessed as melting temperature at 50 uM by circular dichroism analysis
Escherichia coli [4] = assay: Binding affinity to wild type Beta-lactamase SHV-1 in Escherichia coli DH10B assessed as melting temperature at 50 uM by circular dichroism analysis
Escherichia coli [5] = assay: Selectivity ratio of Ki for Beta-lactamase SHV-1 in Escherichia coli DH10B to Ki for Beta-lactamase SHV-1 K234R protein mutant in Escherichia coli DH10B
Escherichia coli [6] = assay: Binding affinity to wild type Beta-lactamase SHV-1 in Escherichia coli DH10B assessed as change in secondary structure at 50 uM by circular dichroism analysis
Escherichia coli [7] = assay: Binding affinity to Beta-lactamase SHV-1 K234R protein mutant in Escherichia coli DH10B assessed as change in secondary structure at 50 uM by circular dichroism analysis
Escherichia coli [8] = assay: Activity of wild type Beta-lactamase SHV-1 in Escherichia coli DH10B by Henri-Michaelis-Menten steady state equation analysis
Escherichia coli [9] = assay: Ratio of Kcat to Km for wild type Beta-lactamase SHV-1 in Escherichia coli DH10B
Escherichia coli [10] = assay: Activity of Beta-lactamase SHV-1 K234R protein mutant in Escherichia coli DH10B by Henri-Michaelis-Menten steady state equation analysis
Escherichia coli [11] = assay: Ratio of Kcat to Km for Beta-lactamase SHV-1 K234R protein mutant in Escherichia coli DH10B
Escherichia coli [12] = assay: Antimicrobial activity against Escherichia coli DH10B expressing Beta-lactamase SHV-1 K234A protein mutant by CLSI agar dilution method; format: functional
Escherichia coli [13] = assay: Antimicrobial activity against Escherichia coli DH10B expressing Beta-lactamase SHV-1 K234R protein mutant by CLSI agar dilution method; format: functional
Escherichia coli [14] = assay: Antimicrobial activity against Escherichia coli DH10B by CLSI agar dilution method; format: functional
Escherichia coli [15] = assay: Antimicrobial activity against Escherichia coli DH10B expressing wild type Beta-lactamase SHV-1 by CLSI agar dilution method; format: functional
Escherichia coli [16] = assay: Antimicrobial activity against Escherichia coli DH10B expressing Beta-lactamase SHV-1 K234X protein mutant by CLSI agar dilution method; format: functional
Escherichia coli [17] = assay: Antimicrobial activity against Escherichia coli DH10B expressing Beta-lactamase SHV K234R mutant by CLSI agar dilution method in presence of ampicillin; format: functional
Escherichia coli [18] = assay: Antimicrobial activity against Escherichia coli DH10B by CLSI agar dilution method in presence of ampicillin; format: functional
Escherichia coli [19] = assay: Antimicrobial activity against Escherichia coli DH10B expressing wild type Beta-lactamase SHV1 gene by CLSI agar dilution method in presence of ampicillin; format: functional
Escherichia coli [20] = assay: Antimicrobial activity against Escherichia coli DH10B expressing Beta-lactamase SHV K234X mutant by CLSI agar dilution method in presence of ampicillin; format: functional
Escherichia coli [21] = assay: Antimicrobial activity against Escherichia coli DH10B expressing Beta-lactamase SHV K234A mutant by CLSI agar dilution method in presence of ampicillin; format: functional

O=C(Cc1cccs1)N[C@@H](Cc1cccc(C(=O)O)c1)B(O)O
Ki [1]: 460 nM | Ki [2]: 12 nM

CCOc1ccc2ccccc2c1C(=O)N[C@@H](Cc1cccc(C(=O)O)c1)B(O)O
Ki [1]: 37 nM | Ki [2]: 48 nM

N[C@@H](C(=O)N[C@@H](Cc1cccc(C(=O)O)c1)B(O)O)c1ccccc1
Ki [1]: 56 nM | Tm (Escherichia coli [3]): 54.8 °C | Tm (Escherichia coli [4]): 61.4 °C | Ratio Ki (Escherichia coli [5]): 20 | Ki [2]: 2.4 nM

CCN1CCN(C(=O)N[C@@H](C(=O)N[C@@H](Cc2cccc(C(=O)O)c2)B(O)O)c2ccc(O)cc2)C(=O)C1=O
Ki [1]: 9.3 nM | Ki [2]: 13.5 nM

O=C(Cc1cccs1)NCB(O)O
inhibition (Escherichia coli [6]): Active | Ki [1]: 20000 nM | Tm (Escherichia coli [3]): 48.9 °C | Tm (Escherichia coli [4]): 55.1 °C | Ki [2]: 61000 nM | inhibition (Escherichia coli [7]): inactive

O=C(Cc1cccs1)N[C@@H]1C(=O)N2C(C(=O)O)=C(/C=C/c3ccc([N+](=O)[O-])cc3[N+](=O)[O-])CS[C@H]12
Km (Escherichia coli [8]): 24.7 µM | kcat (Escherichia coli [8]): 348 s⁻¹ | kcat/Km (Escherichia coli [9]): 1.41e+07 M⁻¹ s⁻¹ | Km (Escherichia coli [10]): 10.4 µM | kcat (Escherichia coli [10]): 45.2 s⁻¹ | kcat/Km (Escherichia coli [11]): 4.3e+06 M⁻¹ s⁻¹

CC1(C)S[C@@H]2[C@H](NC(=O)[C@H](N)c3ccccc3)C(=O)N2[C@H]1C(=O)O [AMPICILLIN]
MIC (Escherichia coli [12]): 32 µg/mL (≈ 91.6 µM) | MIC (Escherichia coli [13]): 16400 µg/mL (≈ 46900 µM) | MIC (Escherichia coli [14]): 1 µg/mL (≈ 2.86 µM) | MIC (Escherichia coli [15]): > 16400 µg/mL | MIC (Escherichia coli [16]): 4 µg/mL (≈ 11.4 µM)

CC(=O)OCC1=C(C(=O)O)N2C(=O)[C@@H](NC(=O)Cc3cccs3)[C@H]2SC1 [CEPHALOTHIN]
Km (Escherichia coli [8]): 48.9 µM | kcat (Escherichia coli [8]): 42.6 s⁻¹ | MIC (Escherichia coli [12]): 8 µg/mL (≈ 20.2 µM) | kcat/Km (Escherichia coli [9]): 870000 M⁻¹ s⁻¹ | Km (Escherichia coli [10]): 29 µM | MIC (Escherichia coli [13]): 16 µg/mL (≈ 40.4 µM) | MIC (Escherichia coli [14]): 2 µg/mL (≈ 5.04 µM) | MIC (Escherichia coli [15]): 256 µg/mL (≈ 646 µM) | MIC (Escherichia coli [16]): 8 µg/mL (≈ 20.2 µM)

O=C(O)[C@H]1/C(=C/CO)O[C@@H]2CC(=O)N21 [CLAVULANIC ACID]
MIC (Escherichia coli [17]): 16 µg/mL | inhibition (Escherichia coli [6]): Active | Tm (Escherichia coli [3]): 46.1 °C | Tm (Escherichia coli [4]): 55 °C | MIC (Escherichia coli [18]): < 0.06 µg/mL | inhibition (Escherichia coli [7]): Active | MIC (Escherichia coli [19]): 4 µg/mL

CCN1CCN(C(=O)N[C@@H](C(=O)N[C@@H]2C(=O)N3[C@@H]2SC(C)(C)[C@@H]3C(=O)O)c2ccccc2)C(=O)C1=O [PIPERACILLIN]
Km (Escherichia coli [8]): 74.6 µM | kcat (Escherichia coli [8]): 1180 s⁻¹ | MIC (Escherichia coli [12]): 8 µg/mL (≈ 15.5 µM) | kcat/Km (Escherichia coli [9]): 1.58e+07 M⁻¹ s⁻¹ | Km (Escherichia coli [10]): 305 µM | MIC (Escherichia coli [13]): 2050 µg/mL (≈ 3960 µM) | MIC (Escherichia coli [14]): 1 µg/mL (≈ 1.93 µM) | MIC (Escherichia coli [15]): > 4100 µg/mL | MIC (Escherichia coli [16]): 4 µg/mL (≈ 7.73 µM)

CC1(C)[C@H](C(=O)O)N2C(=O)C[C@H]2S1(=O)=O [SULBACTAM]
MIC (Escherichia coli [17]): 64 µg/mL | inhibition (Escherichia coli [6]): Active | Tm (Escherichia coli [4]): 54.4 °C | MIC (Escherichia coli [18]): < 0.06 µg/mL | inhibition (Escherichia coli [7]): inactive | MIC (Escherichia coli [20]): < 0.06 µg/mL | MIC (Escherichia coli [19]): 512 µg/mL | MIC (Escherichia coli [21]): < 0.06 µg/mL

C[C@]1(Cn2ccnn2)[C@H](C(=O)O)N2C(=O)C[C@H]2S1(=O)=O [TAZOBACTAM]
MIC (Escherichia coli [17]): 16 µg/mL | inhibition (Escherichia coli [6]): Active | Tm (Escherichia coli [3]): 49 °C | Tm (Escherichia coli [4]): 54.4 °C | MIC (Escherichia coli [18]): < 0.06 µg/mL | inhibition (Escherichia coli [7]): inactive | MIC (Escherichia coli [20]): < 0.06 µg/mL | MIC (Escherichia coli [19]): 128 µg/mL | MIC (Escherichia coli [21]): < 0.06 µg/mL

— ChEMBL document CHEMBL2321809 (J Med Chem, 2013)
